Experimental data taken from PubChem BioAssay AID463203 (Broad Institute, 2010).
Activity calls are given as the source filed them.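 The calls were made as follows: active = more than half of replicate measurements showing over 20% loss of kinase signal relative to plate controls; inconclusive = some but at most half of replicates over 20% loss; inactive = no replicate over 20% signal loss.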

Molecular target: Glycogen synthase kinase-3 alpha (Homo sapiens) (UniProt P49840)
Assay: concentration-response blocking of human GSK3A – biochemical, luminescence, cell-free homogeneous, retest, dose response (AID 463203)
Settings: GSK-3 alpha enzyme, ADP-Glo luminescence, 60 min

Glycogen synthase kinase-3 alpha (Homo sapiens), sequence (P49840 whole entry, looked up): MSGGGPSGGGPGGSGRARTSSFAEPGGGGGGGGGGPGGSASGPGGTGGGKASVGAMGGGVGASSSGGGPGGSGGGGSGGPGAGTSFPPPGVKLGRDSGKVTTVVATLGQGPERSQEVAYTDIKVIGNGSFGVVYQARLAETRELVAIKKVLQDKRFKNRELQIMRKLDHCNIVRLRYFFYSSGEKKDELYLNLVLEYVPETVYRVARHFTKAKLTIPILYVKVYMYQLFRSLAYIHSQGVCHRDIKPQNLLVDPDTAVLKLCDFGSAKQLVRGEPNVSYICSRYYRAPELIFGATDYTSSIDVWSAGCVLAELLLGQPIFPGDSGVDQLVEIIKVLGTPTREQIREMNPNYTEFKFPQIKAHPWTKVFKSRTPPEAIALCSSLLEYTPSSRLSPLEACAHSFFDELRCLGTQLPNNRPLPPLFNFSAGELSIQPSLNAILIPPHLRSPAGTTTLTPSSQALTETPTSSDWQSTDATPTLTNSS

Compound: CCOC(=O)N1CCc2c(sc3nc4n(c(=O)c23)N=C(c2ccc(OC)cc2)CS4)C1
- AC50: > 30 µM (inactive)

Compound: Nc1cc(C(F)(F)F)ccc1C(=O)O
- AC50: > 30 µM (inactive)

Compound: Cc1nccnc1Sc1ccccc1
- AC50: > 30 µM (inactive)

Compound: Cc1ccc(C(=O)Nc2nnc(C)s2)cc1
- AC50: > 30 µM (inactive)

Compound: O=C(c1ccccc1)c1cnc(Nc2ccccc2Cl)s1
- AC50: > 30 µM (inactive)

Compound: CCCc1nnc(NC(=O)CCN2C(=O)c3ccccc3C2=O)s1
- AC50: > 30 µM (inactive)

Compound: CCOC(=O)C1=C(C)NC(C)=C(C(=O)OCC)C1c1sccc1C
- AC50: > 30 µM (inactive)

Compound: COc1cc(C2c3sc(=O)[nH]c3SC3C(=O)N(c4ccc(C)cc4)C(=O)C32)ccc1O (configuration not stated)
- AC50: > 30 µM (inactive)

Compound: Clc1cncc(Cl)c1N/N=C/c1ccncc1
- AC50: > 30 µM (inactive)

Compound: O=C(Nc1ccccc1-c1nnc(SCc2ccc(Cl)cc2Cl)o1)c1ccccc1
- AC50: > 30 µM (inactive)

Compound: O=C1NC(=Nc2cccc(O)c2)S/C1=C\c1cccc([N+](=O)[O-])c1
- AC50: > 30 µM (inactive)

Compound: CCN1CCN(Cc2cc(OC)c(OC)cc2[N+](=O)[O-])CC1
- AC50: > 30 µM (inactive)

Compound: COc1ccccc1C(=O)NNC(=O)c1cccc(F)c1
- AC50: > 30 µM (inactive)

Compound: O=[N+]([O-])c1cc(C(F)(F)F)ccc1NCCCN1CCOCC1
- AC50: > 30 µM (inactive)

Compound: CCCCOC(=O)CNc1n[nH]c(=S)[nH]c1=O
- AC50: > 30 µM (inactive)

Compound: Clc1cccc(/C=N/Nc2ncnc3ccccc23)c1
- AC50: > 30 µM (inactive)

Compound: CC(=O)Nc1ncc(Cc2cccc(Cl)c2Cl)s1
- AC50: > 30 µM (inactive)

Compound: CSc1nc(NCC(C)C)nc(N2CCOCC2)n1
- AC50: > 30 µM (inactive)

Compound: O=[N+]([O-])c1ccc(NC2CCCC2)cc1
- AC50: > 30 µM (inactive)

Compound: Nc1nonc1-n1nnc(C(=O)N/N=C/c2ccco2)c1CSc1ccccc1
- AC50: > 30 µM (inactive)

Compound: OCC1OC(n2cnc3c(NCCc4ccccc4)ncnc32)C(O)C1O (configuration not stated)
- AC50: > 30 µM (inactive)

Compound: CC1(C)Cc2nc3oc4c(=S)nc[nH]c4c3cc2CO1
- AC50: 17 µM

Compound: CCOC(=O)c1[nH]c2c(c1-c1ccccc1)C(=O)CC(c1ccc(OCC)cc1)C2 (configuration not stated)
- AC50: > 30 µM (inactive)

Compound: COc1ccccc1NC(=O)CSc1nnc(-c2ccncc2)o1
- AC50: > 30 µM (inactive)

Compound: C=CCN1C(=O)/C(=C\c2ccco2)C(C(=O)OC)=C1C
- AC50: > 30 µM (inactive)

Compound: NNC(=O)CCCCCCCCCCOCCCCO
- AC50: > 30 µM (inactive)

Compound: Cc1cccc(C)c1OC(=O)Cc1ccccc1[N+](=O)[O-]
- AC50: > 30 µM (inactive)

Compound: O=c1cc(-c2ccccc2)oc2ccccc12
- AC50: > 30 µM (inactive)

Compound: O=C(Nc1ccccc1C(=O)NC1CCCCC1)c1ccco1
- AC50: > 30 µM (inactive)

Compound: O=C(NCCCn1ccnc1)C(=O)NC1CCCCC1
- AC50: > 30 µM (inactive)

Compound: O=[N+]([O-])c1ccc(Nc2nc(Cl)nc(NCCO)n2)cc1
- AC50: > 30 µM (inactive)

Compound: O=C(Cn1c(NCCO)nc2ccccc21)c1ccc([N+](=O)[O-])cc1
- AC50: > 30 µM (inactive)

Compound: O=C1OCCC1Sc1nnc(-c2ccc3c(c2)OCO3)o1 (configuration not stated)
- AC50: 25.9 µM

Compound: Cc1cc(OCc2cc(C(=O)O)oc2C)c2c3c(c(=O)oc2c1)CCCC3
- AC50: 21.6 µM

Compound: O=C1N/C(=N\S(=O)(=O)Cc2ccccc2)S/C1=C/c1cccc([N+](=O)[O-])c1
- AC50: > 30 µM (inactive)

Compound: Nc1nonc1-n1nnc(C(=O)N/N=C/c2cccnc2)c1-c1cccs1
- AC50: 1.03 µM

Compound: CCOC(=O)c1cc[nH]c1C
- AC50: > 30 µM (inactive)

Compound: CCN(CC)CCCNc1nc(N)c([N+](=O)[O-])c(N2CCCCCC2)n1
- AC50: 29.6 µM

Compound: CCCCOC(=O)C1=C(C)Nc2ncnn2C1c1cc(OC)ccc1OC (configuration not stated)
- AC50: > 30 µM (inactive)

Compound: CCn1c(SCC(=O)N/N=C/c2cccs2)nc2ccccc21
- AC50: > 30 µM (inactive)

Compound: CC(C)(C)OC(=O)N1CCC(NC(=O)c2nc[nH]c2C(=O)NC2CCN(C(=O)OC(C)(C)C)CC2)CC1
- AC50: > 30 µM (inactive)

Compound: O=C(CSc1nnc(SCC(=O)c2ccco2)s1)c1ccco1
- AC50: > 30 µM (inactive)

Compound: O=C(NCc1c(F)cccc1F)c1cc(COc2c(F)cccc2F)on1
- AC50: > 30 µM (inactive)

Compound: O=C(c1ccc(F)cc1)c1cnc(Nc2ccccc2)s1
- AC50: > 30 µM (inactive)

Compound: CCc1ccc(C2C3=C(CC(C)(C)CC3=O)Nc3c2c(=O)[nH]c2nc(C)nn32)cc1 (configuration not stated)
- AC50: > 30 µM (inactive)

Compound: CC1CCCCC12NC(=O)N(CC(=O)Nc1sc3c(c1C(N)=O)CCC3)C2=O (configuration not stated)
- AC50: 11.4 µM

Compound: CCN(C(=O)CN1CCCCCC1)c1c(N)n(Cc2ccccc2)c(=O)[nH]c1=O
- AC50: > 30 µM (inactive)

Compound: COc1ccc(S(=O)(=O)NC(C)C(=O)O)cc1 (configuration not stated)
- AC50: > 30 µM (inactive)

Compound: Cc1cccc(OCC(=O)Nc2ccc3c(c2)C(=O)NC3=O)c1
- AC50: > 30 µM (inactive)

Compound: CC1CCCN(Cc2c(O)ccc3c2O/C(=C\c2ccco2)C3=O)C1 (configuration not stated)
- AC50: 9.29 µM

Compound: COc1cc(C2c3sc(=O)[nH]c3SC3C(=O)N(c4ccc(Br)cc4)C(=O)C32)ccc1O (configuration not stated)
- AC50: > 30 µM (inactive)

Compound: COc1cc(Br)c(C2C(C#N)=C(N)Oc3n[nH]c(-c4cccnc4)c32)cc1OC (configuration not stated)
- AC50: > 30 µM (inactive)

Compound: CCC(Sc1ccc2nnc(-c3ccc(OC)c(OC)c3)n2n1)C(=O)O (configuration not stated)
- AC50: 29.2 µM

Compound: O=C(O)c1ccc(N=c2oc3cc(O)ccc3cc2C(=O)NCc2ccccc2)cc1
- AC50: 5.83 µM

Compound: O=C(NC(=S)Nc1cccc2c(O)cccc12)c1ccccc1[N+](=O)[O-]
- AC50: > 30 µM (inactive)

Compound: CC(C)(C)NC(=O)/C(=C/c1ccccc1F)NC(=O)c1ccc([N+](=O)[O-])cc1
- AC50: > 30 µM (inactive)

Compound: O=C(COc1ccccc1Cl)Nc1ccc(Cl)cn1
- AC50: > 30 µM (inactive)

Compound: CN1/C(=C\C=C(/C#N)C(=O)Nc2ccc(Cl)cc2)C(C)(C)c2ccccc21
- AC50: > 30 µM (inactive)

Compound: Oc1ccc(/C=N/Nc2nccnc2Cl)cc1
- AC50: 24.8 µM

Compound: COc1ccc(-c2cc(=O)c3c(O)cc(O)cc3o2)cc1
- AC50: 4.21 µM

Compound: Cc1ccc(Sc2ccc(NC(=O)CCl)cc2)c(C)c1
- AC50: > 30 µM (inactive)

Compound: Cn1ccnc1SCC(=O)Nc1ccc(Cl)cn1
- AC50: 23.1 µM

Compound: C=CCSc1ncnc2c1oc1nc3c(cc12)COC(C)(C)C3
- AC50: > 30 µM (inactive)

Compound: O=[N+]([O-])c1ccc(N/N=C/c2cn(Cc3ccc(F)cc3)c3ccccc23)nc1
- AC50: > 30 µM (inactive)

Compound: C#CCOCCOCCOCCNc1nc(N2CCN(C(=O)CCCCCCCCCCNC(=O)[C@H](CCCCN)n3cc(C)nn3)CC2)nc(N2CCN(C(=O)CCCCCCCCCCNC(=O)[C@H](CCCN=C(N)N)n3cc(C[C@@H](C)CC)nn3)CC2)n1
- AC50: > 30 µM (inactive)

Compound: CCOC(=O)/C(C#N)=C/c1cn(CCC(=O)O)nc1-c1cccc(Br)c1
- AC50: > 30 µM (inactive)

Compound: O=C1c2cccc(O)c2C(=O)c2c(O)cc(CO)cc21
- AC50: > 30 µM (inactive)

Compound: COc1ccc(Br)cc1C(=O)Nc1ccc(NC(=O)c2ccco2)cc1
- AC50: > 30 µM (inactive)

Compound: CCOC(=O)c1sc(NC(=O)C2CC2)nc1C
- AC50: 15 µM

Compound: COC(=O)c1c(NC(=O)CN2C(=O)NC3(CCCCC3C)C2=O)sc2c1CCC2 (configuration not stated)
- AC50: > 30 µM (inactive)

Compound: CC1CCC2(CC1)NC(=O)N(CC(=O)Nc1ccc(C(N)=O)cc1)C2=O (configuration not stated)
- AC50: > 30 µM (inactive)

Compound: CCOc1ccc(Nc2nc(N(C)c3ccccc3)nc(N)c2[N+](=O)[O-])cc1
- AC50: > 30 µM (inactive)

Compound: COC(=O)c1sc(NC(=O)COc2ccc(OC)cc2)nc1C
- AC50: 28.6 µM

Compound: COc1ccc(-c2cc(=O)c3ccccc3o2)cc1
- AC50: > 30 µM (inactive)

Compound: Cn1c(SCC(=O)N/N=C/C=C\c2ccco2)nc2ccccc21
- AC50: > 30 µM (inactive)

Compound: CC(=O)c1sc(NC(=O)CN2C(=O)C3CCCCC3C2=O)nc1-c1ccccc1 (configuration not stated)
- AC50: 8.54 µM

Compound: CCNc1ccccc(C(=O)/C=C/c2ccc3c(c2)OCO3)c1=O
- AC50: > 30 µM (inactive)

Compound: C[C@H](CO)N1C[C@H](C)[C@@H](CN(C)S(=O)(=O)c2cccs2)Oc2c(NS(=O)(=O)c3ccc(F)cc3)cccc2C1=O
- AC50: > 30 µM (inactive)

Compound: COC(=O)c1cc2cc(Cl)ccc2nc1SC
- AC50: > 30 µM (inactive)

Compound: N#Cc1c(-c2ccccc2)nc(SCc2ccc(Cl)cc2)[nH]c1=O
- AC50: > 30 µM (inactive)

Compound: CCN1/C(=C/C(C)=O)Sc2ccc(OC)cc21
- AC50: 16.5 µM

Compound: Cc1cc(N2CCN(c3ccccc3)CC2)n2nnnc2n1
- AC50: > 30 µM (inactive)

Compound: O=C(C[n+]1ccccc1)c1ccc(Cl)cc1
- AC50: > 30 µM (inactive)

Compound: O=C(NC1CCCC1)c1cccc(NC(=O)c2ccco2)c1
- AC50: > 30 µM (inactive)

Compound: CCN1CCN(c2c(Cl)cccc2NC(=O)c2cc3ccccc3o2)CC1
- AC50: > 30 µM (inactive)

Compound: COc1cc(/C=N/NC(=O)c2nnn(-c3nonc3N)c2-c2cccs2)ccc1O
- AC50: 4.37 µM

Compound: CCc1ccc(/C=c2\s/c(=C\C(=O)C(C)(C)C)[nH]c2=O)cc1
- AC50: > 30 µM (inactive)

Compound: CCCCn1c(SCC(=O)Nc2sc3c(c2C(N)=O)CCC3)nnc1-c1ccccc1
- AC50: > 30 µM (inactive)

Compound: COCC(=O)Nc1ccc([N+](=O)[O-])cc1OC
- AC50: > 30 µM (inactive)

Compound: S=C(Nc1cccnc1)Nc1ccccn1
- AC50: > 30 µM (inactive)

Compound: Cc1cc(C)cc(NC(=O)CSCc2nc3c(nnn3Cc3ccc(F)cc3)c(=O)[nH]2)c1
- AC50: > 30 µM (inactive)

Compound: COc1ccc(NC(=O)CNc2cccc(S(=O)(=O)N3CCCCCC3)c2)c([N+](=O)[O-])c1
- AC50: > 30 µM (inactive)

Compound: O=C1NC(=Nc2ccccc2)S/C1=C/c1cccs1
- AC50: > 30 µM (inactive)

Compound: Cc1cc(NC(=O)CSc2nc3ccccc3c(=O)n2CCCC(=O)NCc2ccco2)n[nH]1
- AC50: > 30 µM (inactive)

Compound: CCn1c(C)nc2cc(-c3nnc(-c4c(-c5ccccc5)noc4C)o3)ccc21
- AC50: > 30 µM (inactive)

Compound: COc1ccc(Br)cc1C1CC(=O)N2CN(Cc3ccccc3)CSC2=C1C#N (configuration not stated)
- AC50: > 30 µM (inactive)

Compound: S=C(NCc1ccccc1)NCc1ccc2c(c1)OCO2
- AC50: 14.2 µM

Compound: CN(C)c1ncnc2c1ncn2C1OC(CO)C(O)C1O (configuration not stated)
- AC50: > 30 µM (inactive)

Compound: S=C(NCc1ccc2c(c1)OCO2)NCc1ccc2c(c1)OCO2
- AC50: 25.5 µM

Compound: CCOC(=O)c1c(NC(=O)CN2C(=O)NC3(CCC(C)CC3)C2=O)sc(C)c1CC (configuration not stated)
- AC50: > 30 µM (inactive)

Compound: CCSc1nc2sc3c(c2c(=O)n1CC)CC(C)(C)OC3
- AC50: > 30 µM (inactive)

Compound: O=C1/C(=C/c2ccc3c(c2)OCO3)Oc2cc(OCC(=O)N3CC(O)C[C@H]3C(=O)O)ccc21 (some centres not stated)
- AC50: 4.07 µM
